Data from patent US12258328B2, “6-membered heteroaryl-containing aminopyridine compounds as EGFR inhibitors” (YUHAN CORPORATION, priority 2021, dated 2025).
Like-named read-outs stand apart in the source and are kept apart here.

Assays:
EGFR del19/C797S = EGFR del19/C797S (Homo sapiens, UniProt P00533, C797S/DEL746-750); assay: Biochemical EGFR kinase assay (Lance Ultra TR-FRET), double mutant del19/C797S
Description: (§1) Biochemical EGFR kinase assays were conducted using Lance Ultra time-resolved fluorescence resonance energy transfer (TR-FRET) technology from Perkin-Elmer. Compounds of the invention were initially diluted to 20 mM in 100% DMSO for storage and made into kinase buffer solution to create a compound concentration ranging from 0.003 μM and 10 μM.
(§2) Each kinase reactions were incubated at room temperature for 1 hour and then stopped by the addition of 4 μL of stop solution (10 mM EDTA). The specific Europium-labeled-anti-phosphopeptide antibody (PerkinElmer, AD0069) diluted in LANCE detection buffer was then added to a final concentration of 2 nM. After 60 minutes incubation at room temperature the LANCE signal was measured on an EnVision Multilabel Reader (Perkin-Elmer). Excitation wavelength was set at 320 nm and emission monitored at 615 nm (donor) and 665 nm (acceptor). The IC50 values were determined using GraphPad prism software (GraphPad Software, Inc., San Diego, CA, USA).

EGFR del19/T790M/C797S = EGFR del19/T790M/C797S (Homo sapiens, UniProt P00533, C797S/DEL746-750/T790M); assay: Biochemical EGFR kinase assay (Lance Ultra TR-FRET), triple mutant del19/T790M/C797S
Description: as §1, §2

EGFR L858R/T790M/C797S = EGFR L858R/T790M/C797S (Homo sapiens, UniProt P00533, C797S/L858R/T790M); assay: Biochemical EGFR kinase assay (Lance Ultra TR-FRET), triple mutant L858R/T790M/C797S
Description: as §1, §2

EGFR L858R/C797S = EGFR L858R/C797S (Homo sapiens, UniProt P00533, C797S/L858R); assay: Biochemical EGFR kinase assay (Lance Ultra TR-FRET), double mutant L858R/C797S
Description: as §1, §2

EGFR wildtype = EGFR wildtype (Homo sapiens, UniProt P00533); assay: Biochemical EGFR kinase assay (Lance Ultra TR-FRET), wildtype
Description: as §1, §2

[1] = ATP at Km, read-out: IC50 del19/C797S, Km ATP
[2] = ATP at Km, read-out: IC50 del19/T790M/C797S, Km ATP
[3] = IC50 del19/T790M/C797S, 100 μM ATP
[4] = IC50 L858R/T790M/C797S, 100 μM ATP
[5] = ATP at Km, read-out: IC50 L858R/C797S, Km ATP
[6] = ATP at Km, read-out: IC50 WT, Km ATP
[7] = IC50 del19/C797S (nM) 100 μM ATP, 100 μM ATP
[8] = Km ATP, read-out: IC50 del19/C797S (nM) Km ATP
[9] = IC50 del19/T790M/C797S (nM) 100 μM ATP, 100 μM ATP
[10] = Km ATP, read-out: IC50 del19/T790M/C797S (nM) Km ATP
[11] = IC50 L858R/T790M/C797S (nM) 100 μM ATP, 100 μM ATP
[12] = Km ATP, read-out: IC50 L858R/T790M/C797S (nM) Km ATP
[13] = IC50 L858R/C797S (nM) 100 μM ATP, 100 μM ATP
[14] = Km ATP, read-out: IC50 L858R/C797S (nM) Km ATP
[15] = IC50 WT (nM) 100 μM ATP, 100 μM ATP
[16] = Km ATP, read-out: IC50 WT (nM) Km ATP
[17] = ATP at Km, read-out: IC50 L858R/T790M/C797S, Km ATP

Sequence of EGFR L858R/C797S (P00533 25-1210 C797S/L858R): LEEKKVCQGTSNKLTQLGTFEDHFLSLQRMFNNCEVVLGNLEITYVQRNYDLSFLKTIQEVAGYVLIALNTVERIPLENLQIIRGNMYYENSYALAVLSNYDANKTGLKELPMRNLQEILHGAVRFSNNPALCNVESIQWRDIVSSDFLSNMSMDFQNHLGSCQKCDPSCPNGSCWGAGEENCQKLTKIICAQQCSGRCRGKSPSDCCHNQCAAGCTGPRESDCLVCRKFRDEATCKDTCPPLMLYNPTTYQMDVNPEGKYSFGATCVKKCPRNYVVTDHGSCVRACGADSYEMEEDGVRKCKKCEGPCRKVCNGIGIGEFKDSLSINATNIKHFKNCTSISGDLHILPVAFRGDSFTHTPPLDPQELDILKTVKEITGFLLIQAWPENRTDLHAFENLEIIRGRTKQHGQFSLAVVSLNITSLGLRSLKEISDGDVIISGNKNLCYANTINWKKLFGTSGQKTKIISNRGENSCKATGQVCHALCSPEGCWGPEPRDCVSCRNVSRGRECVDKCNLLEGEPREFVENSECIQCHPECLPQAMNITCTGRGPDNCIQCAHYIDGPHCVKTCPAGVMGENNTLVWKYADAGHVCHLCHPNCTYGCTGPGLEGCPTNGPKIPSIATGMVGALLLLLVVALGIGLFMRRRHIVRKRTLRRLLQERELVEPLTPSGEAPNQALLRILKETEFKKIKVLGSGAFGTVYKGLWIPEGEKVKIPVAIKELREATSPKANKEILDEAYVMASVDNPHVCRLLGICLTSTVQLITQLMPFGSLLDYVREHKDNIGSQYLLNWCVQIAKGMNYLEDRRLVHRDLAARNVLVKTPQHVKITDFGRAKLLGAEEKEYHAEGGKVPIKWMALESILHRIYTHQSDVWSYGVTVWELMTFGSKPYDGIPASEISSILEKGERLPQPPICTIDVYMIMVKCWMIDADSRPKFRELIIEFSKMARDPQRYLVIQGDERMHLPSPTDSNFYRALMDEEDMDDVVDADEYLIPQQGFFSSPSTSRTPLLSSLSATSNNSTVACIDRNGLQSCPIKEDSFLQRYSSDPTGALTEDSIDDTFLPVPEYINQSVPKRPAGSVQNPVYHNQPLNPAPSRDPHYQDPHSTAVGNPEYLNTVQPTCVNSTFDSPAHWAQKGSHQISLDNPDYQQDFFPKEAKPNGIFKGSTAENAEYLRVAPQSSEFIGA
Sequence of EGFR del19/C797S (P00533 with tags, fused parts or gaps DEL746-750/C797S): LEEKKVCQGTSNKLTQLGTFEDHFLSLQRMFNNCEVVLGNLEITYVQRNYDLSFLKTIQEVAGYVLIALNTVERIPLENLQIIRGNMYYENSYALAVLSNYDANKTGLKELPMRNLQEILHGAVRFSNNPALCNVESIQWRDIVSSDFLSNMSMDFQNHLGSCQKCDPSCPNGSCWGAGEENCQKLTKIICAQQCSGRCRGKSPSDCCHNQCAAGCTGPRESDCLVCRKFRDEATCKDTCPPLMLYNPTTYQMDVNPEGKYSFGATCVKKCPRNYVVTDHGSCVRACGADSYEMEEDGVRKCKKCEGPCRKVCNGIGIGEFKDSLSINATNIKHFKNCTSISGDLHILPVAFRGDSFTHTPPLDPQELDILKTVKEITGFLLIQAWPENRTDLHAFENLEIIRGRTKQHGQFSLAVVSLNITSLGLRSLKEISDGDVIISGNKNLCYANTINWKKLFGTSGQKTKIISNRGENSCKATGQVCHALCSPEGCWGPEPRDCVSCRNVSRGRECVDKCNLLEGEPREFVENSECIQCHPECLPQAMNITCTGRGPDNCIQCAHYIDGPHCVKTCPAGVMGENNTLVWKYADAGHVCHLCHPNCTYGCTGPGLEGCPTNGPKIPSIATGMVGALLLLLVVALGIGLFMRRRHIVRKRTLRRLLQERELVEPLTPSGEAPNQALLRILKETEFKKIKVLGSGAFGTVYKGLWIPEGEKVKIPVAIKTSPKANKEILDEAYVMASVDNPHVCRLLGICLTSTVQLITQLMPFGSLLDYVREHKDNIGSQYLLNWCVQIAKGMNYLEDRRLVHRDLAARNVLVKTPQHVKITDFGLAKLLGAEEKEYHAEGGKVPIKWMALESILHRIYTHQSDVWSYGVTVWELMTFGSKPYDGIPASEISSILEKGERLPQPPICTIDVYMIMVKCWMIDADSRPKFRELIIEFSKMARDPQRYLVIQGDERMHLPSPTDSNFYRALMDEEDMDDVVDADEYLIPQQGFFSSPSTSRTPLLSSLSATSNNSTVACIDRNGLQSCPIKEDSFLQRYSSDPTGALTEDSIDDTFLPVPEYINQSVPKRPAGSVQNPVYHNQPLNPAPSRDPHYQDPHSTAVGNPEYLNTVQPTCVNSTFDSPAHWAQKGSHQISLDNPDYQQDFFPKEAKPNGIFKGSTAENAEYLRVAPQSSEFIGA
Sequence of EGFR L858R/T790M/C797S (P00533 25-1210 T790M/C797S/L858R): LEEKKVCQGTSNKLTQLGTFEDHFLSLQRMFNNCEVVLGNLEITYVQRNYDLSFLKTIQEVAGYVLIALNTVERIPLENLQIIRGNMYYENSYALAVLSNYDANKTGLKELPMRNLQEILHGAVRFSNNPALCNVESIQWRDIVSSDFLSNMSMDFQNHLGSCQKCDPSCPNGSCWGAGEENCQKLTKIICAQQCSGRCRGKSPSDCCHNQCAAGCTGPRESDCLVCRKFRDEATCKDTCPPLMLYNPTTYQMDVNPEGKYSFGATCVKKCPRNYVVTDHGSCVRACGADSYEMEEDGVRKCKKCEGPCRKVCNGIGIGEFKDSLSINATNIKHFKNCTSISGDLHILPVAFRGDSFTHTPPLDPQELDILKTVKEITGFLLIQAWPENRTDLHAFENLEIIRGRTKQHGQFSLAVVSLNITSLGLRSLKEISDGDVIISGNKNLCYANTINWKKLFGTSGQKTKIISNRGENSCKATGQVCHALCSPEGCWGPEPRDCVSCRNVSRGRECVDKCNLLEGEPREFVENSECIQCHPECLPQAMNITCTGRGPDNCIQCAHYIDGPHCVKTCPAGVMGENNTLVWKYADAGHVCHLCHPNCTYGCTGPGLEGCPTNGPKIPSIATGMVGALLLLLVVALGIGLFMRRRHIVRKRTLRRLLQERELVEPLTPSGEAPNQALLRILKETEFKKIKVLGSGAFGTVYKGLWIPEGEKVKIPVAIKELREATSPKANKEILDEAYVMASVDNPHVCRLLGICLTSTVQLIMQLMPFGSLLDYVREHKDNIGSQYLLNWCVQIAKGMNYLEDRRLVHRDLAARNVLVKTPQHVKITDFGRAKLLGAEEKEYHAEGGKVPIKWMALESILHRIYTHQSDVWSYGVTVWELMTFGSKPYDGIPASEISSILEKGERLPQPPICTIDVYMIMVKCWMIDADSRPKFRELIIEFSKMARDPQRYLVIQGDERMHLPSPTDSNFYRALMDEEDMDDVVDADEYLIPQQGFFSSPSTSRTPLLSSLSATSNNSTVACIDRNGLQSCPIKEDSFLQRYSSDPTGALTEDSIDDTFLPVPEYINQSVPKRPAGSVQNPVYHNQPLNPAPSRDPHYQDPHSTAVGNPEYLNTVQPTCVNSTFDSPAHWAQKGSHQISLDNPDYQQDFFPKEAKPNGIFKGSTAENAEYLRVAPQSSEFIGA
Sequence of EGFR wildtype (P00533 25-1210): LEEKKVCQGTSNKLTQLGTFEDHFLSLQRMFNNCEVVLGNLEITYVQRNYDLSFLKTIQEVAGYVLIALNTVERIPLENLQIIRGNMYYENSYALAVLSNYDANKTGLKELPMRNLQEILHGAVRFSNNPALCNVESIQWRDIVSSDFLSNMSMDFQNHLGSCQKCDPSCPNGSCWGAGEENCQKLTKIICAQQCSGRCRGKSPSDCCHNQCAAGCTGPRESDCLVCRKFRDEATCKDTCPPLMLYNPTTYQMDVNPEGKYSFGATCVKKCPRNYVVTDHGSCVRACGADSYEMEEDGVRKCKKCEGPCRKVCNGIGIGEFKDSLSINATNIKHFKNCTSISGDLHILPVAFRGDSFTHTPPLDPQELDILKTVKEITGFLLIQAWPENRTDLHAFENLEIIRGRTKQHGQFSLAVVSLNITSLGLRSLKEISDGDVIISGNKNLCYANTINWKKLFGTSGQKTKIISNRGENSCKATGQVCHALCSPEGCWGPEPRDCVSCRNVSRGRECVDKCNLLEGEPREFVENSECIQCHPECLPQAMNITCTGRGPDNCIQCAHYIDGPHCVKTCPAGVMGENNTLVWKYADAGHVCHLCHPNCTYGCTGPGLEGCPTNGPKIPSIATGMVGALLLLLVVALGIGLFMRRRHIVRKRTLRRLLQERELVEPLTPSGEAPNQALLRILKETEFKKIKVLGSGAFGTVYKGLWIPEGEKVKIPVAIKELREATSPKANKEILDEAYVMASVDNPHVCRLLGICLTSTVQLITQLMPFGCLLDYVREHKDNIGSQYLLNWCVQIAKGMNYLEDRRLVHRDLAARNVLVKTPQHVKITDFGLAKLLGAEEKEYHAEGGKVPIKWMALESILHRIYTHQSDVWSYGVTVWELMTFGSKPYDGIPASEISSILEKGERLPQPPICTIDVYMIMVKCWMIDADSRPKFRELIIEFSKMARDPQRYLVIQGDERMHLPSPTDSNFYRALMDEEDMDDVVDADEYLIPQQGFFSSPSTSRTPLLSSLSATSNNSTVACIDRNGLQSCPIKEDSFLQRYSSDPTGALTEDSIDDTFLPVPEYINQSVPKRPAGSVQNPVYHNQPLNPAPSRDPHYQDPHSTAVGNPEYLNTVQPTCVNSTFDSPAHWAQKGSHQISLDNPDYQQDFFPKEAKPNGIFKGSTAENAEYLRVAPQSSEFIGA

| IC50 (EGFR del19/C797S; [1]) | IC50 (EGFR del19/C797S; IC50 del19/C797S, 100 μM ATP) | IC50 (EGFR del19/T790M/C797S; [2]) | IC50 (EGFR del19/T790M/C797S; [3]) | IC50 (EGFR L858R/T790M/C797S; [4]) | IC50 (EGFR L858R/C797S; [5]) | IC50 (EGFR L858R/C797S; IC50 L858R/C797S, 100 μM ATP) | IC50 (EGFR wildtype; [6]) | IC50 (EGFR wildtype; IC50 WT, 100 μM ATP) | IC50 (EGFR del19/C797S; [7]) | IC50 (EGFR del19/C797S; [8]) | IC50 (EGFR del19/T790M/C797S; [9]) | IC50 (EGFR del19/T790M/C797S; [10]) | IC50 (EGFR L858R/T790M/C797S; [11]) | IC50 (EGFR L858R/T790M/C797S; [12]) | IC50 (EGFR L858R/C797S; [13]) | IC50 (EGFR L858R/C797S; [14]) | IC50 (EGFR wildtype; [15]) | IC50 (EGFR wildtype; [16]) | IC50 (EGFR L858R/T790M/C797S; [17]) | SMILES |
| --- | --- | --- | --- | --- | --- | --- | --- | --- | --- | --- | --- | --- | --- | --- | --- | --- | --- | --- | --- | --- |
| 15.2 nM | 18.7 nM | 4.8 nM | 9.7 nM | 11.3 nM | 10.7 nM | 179 nM | 53.5 nM | > 10000 nM |  |  |  |  |  |  |  |  |  |  | 2.5 nM | CC(F)(F)c1ccc(-c2cnc(Nc3ccnc(-c4cnn(S(=O)(=O)C5CC5)c4)n3)cc2N[C@H]2CC[C@@H](C(C)(C)O)CC2)nc1 [Example 242, 2-((1s,4s)-4-((6′-((2-(1-(Cyclopropylsulfonyl)-1H-pyrazol-4-yl)pyrimidin-4-yl)amino)-5-(1,1-difluoroethyl)-[2,3′-bipyridin]-4′-yl)amino)cyclohexyl)propan-2-ol] |
|  |  |  |  |  |  |  |  |  | 6.4 nM | 0.8 nM |  | 2 nM | 0.5 nM | 0.6 nM | 11.1 nM | 0.1 nM | 1360 nM | 5.2 nM |  | CC(C)(O)c1ccnc(-c2cnc(Nc3ccnc(-c4cnn(S(=O)(=O)C5CC5)c4)n3)cc2N[C@H]2CC[C@@H](C(C)(C)O)CC2)c1 [Example 109, 2-(6′-((2-(1-(Cyclopropylsulfonyl)-1H-pyrazol-4-yl)pyrimidin-4-yl)amino)-4′-(((1s,4s)-4-(2-hydroxypropan-2-yl)cyclohexyl)amino)-[2,3′-bipyridin]-4-yl)propan-2-ol] |
| 0.3 nM | 0.5 nM | 0.3 nM | 0.4 nM | 0.3 nM | 0.1 nM | 1.8 nM | 0.6 nM | 426 nM |  |  |  |  |  |  |  |  |  |  | 0.2 nM | CN(C)CCOc1ccc(-c2cnc(Nc3ccnc(-c4cnn(S(=O)(=O)C5CC5)c4)n3)cc2N[C@H]2CC[C@@H](C(C)(C)O)CC2)nc1 [Example 210, 2-((1s,4s)-4-((6′-((2-(1-(Cyclopropylsulfonyl)-1H-pyrazol-4-yl)pyrimidin-4-yl)amino)-5-(2-(dimethylamino)ethoxy)-[2,3′-bipyridin]-4′-yl)amino)cyclohexyl)propan-2-ol] |
| 7.1 nM | 19.2 nM | 4.7 nM | 6.3 nM | 2.7 nM | 4.7 nM | 36 nM | 18.3 nM | 6750 nM |  |  |  |  |  |  |  |  |  |  | 0.9 nM | CC(C)(O)C1CCC(Nc2cc(Nc3ccnc(-c4cnn(S(=O)(=O)C5CC5)c4)n3)ncc2-c2ccc(C(C)(O)C(F)(F)F)cn2)CC1 (stereo not shown) [Example 233, 2-(6′-((2-(1-(Cyclopropylsulfonyl)-1H-pyrazol-4-yl)pyrimidin-4-yl)amino)-4′-(((1s,4s)-4-(2-hydroxypropan-2-yl)cyclohexyl)amino)-[2,3′-bipyridin]-5-yl)-1,1,1-trifluoropropan-2-ol] |

The remaining lines, values behind:

| SMILES | IC50 (EGFR del19/C797S; [1]) | IC50 (EGFR del19/C797S; IC50 del19/C797S, 100 μM ATP) | IC50 (EGFR del19/T790M/C797S; [2]) | IC50 (EGFR del19/T790M/C797S; [3]) | IC50 (EGFR L858R/T790M/C797S; [4]) | IC50 (EGFR L858R/C797S; [5]) | IC50 (EGFR L858R/C797S; IC50 L858R/C797S, 100 μM ATP) | IC50 (EGFR wildtype; [6]) | IC50 (EGFR wildtype; IC50 WT, 100 μM ATP) | IC50 (EGFR del19/C797S; [7]) | IC50 (EGFR del19/C797S; [8]) | IC50 (EGFR del19/T790M/C797S; [9]) | IC50 (EGFR del19/T790M/C797S; [10]) | IC50 (EGFR L858R/T790M/C797S; [11]) | IC50 (EGFR L858R/T790M/C797S; [12]) | IC50 (EGFR L858R/C797S; [13]) | IC50 (EGFR L858R/C797S; [14]) | IC50 (EGFR wildtype; [15]) | IC50 (EGFR wildtype; [16]) | IC50 (EGFR L858R/T790M/C797S; [17]) |
| --- | --- | --- | --- | --- | --- | --- | --- | --- | --- | --- | --- | --- | --- | --- | --- | --- | --- | --- | --- | --- |
| C[C@]1(O)CC[C@@H](Nc2cc(Nc3ccnc(-c4cnn(S(=O)(=O)C5CC5)c4)n3)ncc2-c2cnc(F)cn2)CC1 [Example 185, (1s,4s)-4-((2-((2-(1-(Cyclopropylsulfonyl)-1H-pyrazol-4-yl)pyrimidin-4-yl)amino)-5-(5-fluoropyrazin-2-yl)pyridin-4-yl)amino)-1-methylcyclohexan-1-ol] | 6.7 nM | 20.3 nM | 2 nM | 8.3 nM | 1.9 nM | 3 nM | 32.1 nM | 111 nM | > 10000 nM |  |  |  |  |  |  |  |  |  |  |  |
| CC(C)(O)c1cc(-c2cnc(Nc3ccnc(-c4cnn(S(=O)(=O)C5CC5)c4)n3)cc2N[C@H]2CC[C@@](C)(O)CC2)ncc1F [Example 104, (1s,4s)-4-((6′-((2-(1-(Cyclopropylsulfonyl)-1H-pyrazol-4-yl)pyrimidin-4-yl)amino)-5-fluoro-4-(2-hydroxypropan-2-yl)-[2,3′-bipyridin]-4′-yl)amino)-1-methylcyclohexan-1-ol] |  |  |  |  |  |  |  |  |  | 3.1 nM | 2.2 nM | 1.8 nM | 1.1 nM | 0.8 nM | 0.6 nM | 21.6 nM | 0.9 nM | > 10000 nM | 21.9 nM |  |
| C[C@]1(O)CC[C@@H](Nc2cc(Nc3ccnc(-c4cnn(S(=O)(=O)C5CC5)c4)n3)ncc2-c2cccc(F)n2)CC1 [Example 271, (1s,4s)-4-((6′-((2-(1-(Cyclopropylsulfonyl)-1H-pyrazol-4-yl)pyrimidin-4-yl)amino)-6-fluoro-[2,3′-bipyridin]-4′-yl)amino)-1-methylcyclohexan-1-ol] | 0.9 nM | 0.7 nM | 0.5 nM | 0.6 nM | 0.4 nM | 0.6 nM | 7.9 nM | 3.8 nM | > 10000 nM |  |  |  |  |  |  |  |  |  |  | 0.2 nM |
| CN1CCN(C(=O)c2ccc(-c3cnc(Nc4ccnc(-c5cnn(S(=O)(=O)C6CC6)c5)n4)cc3N[C@H]3CC[C@@H](CO)CC3)nc2)CC1 [Example 202, (6′-((2-(1-(Cyclopropylsulfonyl)-1H-pyrazol-4-yl)pyrimidin-4-yl)amino)-4′-(((1s,4s)-4-(hydroxymethyl)cyclohexyl)amino)-[2,3′-bipyridin]-5-yl)(4-methylpiperazin-1-yl)methanone] | 0.1 nM | 0.2 nM | 0.2 nM | 0.3 nM | 0.1 nM | 0.03 nM | 0.3 nM | 0.2 nM | 94.2 nM |  |  |  |  |  |  |  |  |  |  | 0.1 nM |
| CN(C)C[C@H]1CC[C@@H](Nc2cc(Nc3ccnc(-c4cnn(S(=O)(=O)C5CC5)c4)n3)ncc2-c2ccc(CC(F)(F)F)cn2)CC1 [Example 221, N^6′-(2-(1-(Cyclopropylsulfonyl)-1H-pyrazol-4-yl)pyrimidin-4-yl)-N^4′-((1s,4s)-4-((dimethylamino)methyl)cyclohexyl)-5-(2,2,2-trifluoroethyl)-[2,3′-bipyridine]-4′,6′-diamine] | 1.1 nM |  | 1.1 nM | 1.4 nM | 0.5 nM | 1 nM | 5.7 nM | 2.1 nM | 767 nM |  |  |  |  |  |  |  |  |  |  | 0.3 nM |
| O=S(=O)(C1CC1)n1cc(-c2nccc(Nc3cc(N[C@H]4CC[C@@H](NCCF)CC4)c(-c4ccc(CO)cn4)cn3)n2)cn1 [Example 21, (6′-((2-(1-(Cyclopropylsulfonyl)-1H-pyrazol-4-yl)pyrimidin-4-yl)amino)-4′-(((1s,4s)-4-((2-fluoroethyl)amino)cyclohexyl)amino)-[2,3′-bipyridin]-5-yl)methanol] |  |  |  |  |  |  |  |  |  | 1.2 nM | 0.5 nM | 0.3 nM | 0.3 nM | 0.6 nM | 0.3 nM | 11.6 nM | 1 nM | 5570 nM | 6.3 nM |  |
| CN1CCN(c2ccc(-c3cnc(Nc4ccnc(-c5cnn(S(=O)(=O)C6CC6)c5)n4)cc3N[C@H]3CC[C@@](C)(O)CC3)nn2)CC1 [Example 46, (1s,4s)-4-((2-((2-(1-(Cyclopropylsulfonyl)-1H-pyrazol-4-yl)pyrimidin-4-yl)amino)-5-(6-(4-methylpiperazin-1-yl)pyridazin-3-yl)pyridin-4-yl)amino)-1-methylcyclohexan-1-ol] |  |  |  |  |  |  |  |  |  | 0.4 nM | 0.2 nM | 0.3 nM | 0.2 nM | 0.2 nM | 0.1 nM | 0.9 nM | 0.2 nM | > 10000 nM | 0.9 nM |  |
| CN1CCC(Oc2ccc(-c3cnc(Nc4ccnc(-c5cnn(CC(F)F)c5)n4)cc3N[C@H]3CC[C@@H](F)CC3)nc2)CC1 [Example 133, N^6′-(2-(1-(2,2-Difluoroethyl)-1H-pyrazol-4-yl)pyrimidin-4-yl)-N^4′-((1s,4s)-4-fluorocyclohexyl)-5-((1-methylpiperidin-4-yl)oxy)-[2,3′-bipyridine]-4′,6′-diamine] |  |  |  |  |  |  |  |  |  |  | 1.7 nM |  | 0.5 nM |  | 0.3 nM |  | 1.4 nM |  | 9.3 nM |  |
